Patent US20070254891A1, “Crystalline forms of 4-(2-fluorophenyl)-6-methyl-2-(piperazin-1-yl)thieno[2,3-d]pyrimidine” (Dynogen Pharmaceuticals, Inc., priority 2006, published 2007)
Where “and” joins values, the source holds several entries; their conditions need not be identical. Equal values may be shown once.

Columns and labels:
[1] = test system: irritation-induced reduction in bladder capacity; assay: Dilute Acetic Acid Model-Rats (filling cystometry); assay type: in vivo, rat; settings: intraduodenal
Excerpt: The abdominal cavity was moistened with saline and closed by covering with a thin plastic sheet in order to maintain access to the bladder for emptying purposes. Fine silver or stainless steel wire electrodes were inserted into the external urethral sphincter (EUS) percutaneously for electromyography (EMG).
P<0.050 was considered significant.

[2] = test system: reduction in bladder capacity seen following continuous infusion of dilute acetic acid; assay: Dilute Acetic Acid Model-Cats; assay type: in vivo, cat; settings: 3 point dose response, 3.0, 10.0 or 30 mg/ml dosed by body weight; P<0.0103; individual significance at 30 mg/kg
Description: Six alpha-chloralose anesthetized (50-100 mg/kg) normal female cats (2,5-3.5 kg; Harlan) were utilized in this study.
Female cats (2.5-3.5 kg; Harlan) had their food removed the night before the study. The following morning, the cats were anesthetized with isoflurane and prepped for surgery using aseptic technique. Polyethylene catheters were surgically placed to permit the measurement of bladder pressure, urethral pressure, arterial pressure, respiratory rate as well as for the delivery of drugs. Fine wire electrodes were implanted alongside the external urethral anal sphincter. […] During control cystometry, saline was slowly infused into the bladder (0.5-1.0 ml/min) for 1 hour. The control cystometry was followed by 0.5% acetic acid in saline for the duration of the experiment.
Data was analyzed using a non-parametric One-Way ANOVA (Friedman Test) with the post-hoc Dunn's multiple comparison t test. P<0.05 was considered significant.

[3] = test system: stress-induced accelerated colonic transit; assay: Water avoidance stress (WAS) model of increased colonic transit, fecal pellet output; assay type: in vivo, rat; settings: 3, 10 or 30 mg/kg i.p.
Excerpt: At the end of the 1-hour stress period, the fecal pellets were counted and recorded. WAS causes an acceleration of colonic transit, which can be quantified by counting the number of fecal pellets, produced during the stress procedure. Rats were placed for 1-hour into a stress chamber onto a raised platform 7.5 cm×7.5 cm×9 cm (L×W×H) in the center of a stress chamber filled with room temperature water 8 cm in depth. The stress chamber was constructed from a rectangular plastic tub (40.2×60.2×31.2 cm). […] Ondansetron was supplied from APIN Chemicals LTD. […] MCI-225 was provided by Mitsubishi Pharma Corp. All drugs were dissolved in a vehicle of 100% propylene glycol (1,2-propanediol) by sonicating for a period of 10 minutes. Propylene glycol was obtained from Sigma Chemical Co. […] All drugs and the vehicle were administered as an i.p. injection in a volume of 0.2 mL.

small intestinal transit = assay: Small Intestinal Transit Rodent Model (charcoal meal); assay type: in vivo, rat; settings: for Small intestinal transit, Mean (% of total length): 15 min test period
Description: Following an overnight fast, rats were brought to the laboratory in their home cages and received an i.p. injection of one of the following: […] Control rats received no treatment. The treated rats were placed back in the home cages and after 30 min, were fed a 2 mL charcoal meal via an oral gavage. Small intestinal transit was measured following 15 min test-period. Each rat was placed briefly in a glass chamber with IsoFlo for anesthesia and sacrificed. The stomach and the small intestine were removed and the total length of the small intestine was measured. Transit was then measured as the distance that the charcoal meal had traveled along the small intestine and expressed as % of the total length. Animals were randomly assigned to experimental groups and experiments were performed as illustrated in Table 11. Small intestinal transit in rats was investigated by the passage of a charcoal meal along the small intestine during a defined time period (15-min). The animals were deprived of food for 12-16 hrs prior to the experiments. Rats were given a charcoal meal (a mixture of charcoal, gum arabic, and distilled water) as a 2 mL oral gavage and were sacrificed after a 15-min test period. The distance traveled by the charcoal meal was quantified as a percent of the small intestinal length, using the following equation: Transit (%)=cm traveled by meal/cm total small intestinal length×100 […]

[4] = test system: retching and vomiting induced by cisplatin; assay: Cisplatin-induced emesis in the ferret; assay type: in vivo, ferret (Mustela putorius furo)
Description: Following administration of the cisplatin and either MCI-225, ondansetron or vehicle alone, the occurrence of retching and vomiting was monitored for a period of 6 hours. […] Vomiting was defined as the forceful oral expulsion of upper gastrointestinal contents. The latency of the retching or vomiting response and the number of episodes were recorded for each animal and summarized for each experimental group (Wright et al., Infect. […] Following one hour of acclimation to the observation cage, ferrets received an intraperitoneal (i.p.) injection of cisplatin (5 mg/kg in 5 mL) followed in about 2 minutes by i.p. injection of a single dose of MCI-225 or ondansetron (Rudd and Naylor, Eur. J. Pharmacol., 322: 79-82 (1997)). […] Each animal received a single-dose drug treatment. In addition, three animals received an initial dose (30 mg/kg i.p.) and a second MCI-225 injection (30 mg/kg i.p.) 180 minutes following the initial dose. […] All groups were randomized.

[5] = test system: acetic acid-induced colonic hypersensitivity; assay: Visceromotor response to colorectal distension in acetic acid-sensitized rats
Description: The visceromotor behavioral response to colorectal distension was measured by counting the number of abdominal contractions recorded by a strain gauge sutured onto the abdominal musculature as described in Gunter et al., Physiol. […] A 5 cm latex balloon catheter inserted via the anal canal into the colon was used for colorectal distensions. Constant pressure tonic distensions were performed in a graded manner (15, 30 or 60 mmHg) and were maintained for a period of 10 min and the numbers of abdominal muscle contractions were recorded to measure the level of colonic sensation. A 10 min recovery was allowed between distensions.
J. Physiol. […] In the present study, a low concentration of acetic acid (1.5 ml, 0.6%) was administered intracolonically to sensitize the colon without causing histological damage to the colonic mucosa as described in previous studies (Gunter et al., supra).
Injection volume was 0.2 mL using 100% propylene glycol as the vehicle. Three consecutive colorectal distensions at 15, 30 or 60 mmHg applied at 10-min intervals were recorded. Visceromotor responses were evaluated as the number of abdominal muscle contractions recorded during the 10-min periods of colorectal distension.
Adult male rats were used in the study. […] Specifically, rats were anesthetized with Isoflurane (2%) and were instrumented with a strain gauge force transducer for recording of abdominal muscle contractions. A latex balloon and catheter were inserted 11 cm into the colon. The animals were allowed a 30-min period to completely recover from the anesthesia and were then subjected to intracolonic infusion of acetic acid (1.5 mL, 0.6%). An additional 30-min period was allowed for sensitization of the colon. […] The protocol for colorectal distension was initiated 30-min post drug administration. After a basal reading of the number of abdominal contractions with the balloon inserted but not distended, three consecutive 10-min lasting colorectal distensions at 15, 30, and 60 mmHg were applied at 10-min intervals. Colorectal sensitivity was evaluated by counting the number of reflex abdominal contractions (i.e. the visceromotor response) observed within each distension period.
The visceromotor behavioral response to colorectal distension was measured by counting the number of abdominal contractions recorded by a strain gauge sutured onto the abdominal musculature as previously described Gunter et al., referenced above. Colorectal distensions were carried out utilizing a 5 cm latex balloon catheter inserted into the colon via the anal canal. Constant pressure tonic distensions were performed in a graded manner, i.e., the pressure was increased to the desired level of 15, 30, or 60 mmHg and then maintained for a period of 10 minutes during which the number of abdominal contractions were recorded to measure the level of colonic sensation. Ten minute recovery periods were allowed following each distension.

[6] = 30 mg/kg b.i.d, second dose 180 minutes after the first

Substance: 4-(2-fluorophenyl)-6-methyl-2-(piperazin-1-yl)thieno[2,3-d]pyrimidine hydrochloride [MCI-225]
- Bladder capacity versus AA/Veh 3 ([1]; 10 mg/kg, p<0.05 Dunn's test): significantly higher than AA/Veh 3
- Bladder capacity versus AA/Veh 3 ([1]; 30 mg/kg, p<0.001 Dunn's test): significantly higher than AA/Veh 3
- Bladder capacity ([1]; 3-30 mg/kg, n=8, p=0.0005 by Friedman test): dose-dependent increase
- Bladder capacity following acetic acid irritation [2]: significant dose-dependent increase
- WAS-induced fecal pellet output during 1 hour [3]: significant dose-dependent inhibition
- Small intestinal transit, Mean (% of total length) (small intestinal transit; 3 mg/kg i.p.): 30.1%
- Small intestinal transit, Mean (% of total length) (small intestinal transit; 10 mg/kg i.p., hydrochloride): 4.2±2.6% and 4.2%
- Small intestinal transit, Mean (% of total length) (small intestinal transit; 30 mg/kg i.p.): 8.8%
- Effect on small intestinal transit compared to the vehicle (small intestinal transit; 3, 10 or 30 mg/kg i.p.): dose-dependent inhibition
- Latency ([4]; 1 mg/kg i.p.): 186 ± 35 min
- Retches (360 min) ([4]; 1 mg/kg i.p.): 30.4 ± 9.1
- Total Events ([4]; 1 mg/kg i.p.): 32.9 ± 9.8
- Vomits (360 min) ([4]; 1 mg/kg i.p.): 2.5 ± 0.7
- Latency ([4]; 10 mg/kg i.p.): 192 ± 57 min
- Retches (360 min) ([4]; 10 mg/kg i.p.): 22.9 ± 10.3
- Total Events ([4]; 10 mg/kg i.p.): 25.5 ± 11.1
- Vomits (360 min) ([4]; 10 mg/kg i.p.): 2.6 ± 1.0
- Latency [4, 6]: 360 ± 0 min
- Retches (360 min) [4, 6]: 0.0 ± 0.0
- Total Events [4, 6]: 0.0 ± 0.0
- Vomits (360 min) [4, 6]: 0.0 ± 0.0
- Latency ([4]; 30 mg/kg i.p.): 287 ± 38 min
- Retches (360 min) ([4]; 30 mg/kg i.p.): 3.3 ± 2.2
- Total Events ([4]; 30 mg/kg i.p.): 4.0 ± 2.6
- Vomits (360 min) ([4]; 30 mg/kg i.p.): 0.7 ± 0.5
- Retches and vomits induced by cisplatin ([4]; 1, 10 or 30 mg/kg i.p.): dose-dependent reduction
- Emetic response ([4]; two doses of 30 mg/kg, b.i.d at a 180-min interval): eliminated
- Number of abdominal contractions in response to colorectal distension, compared to the vehicle ([5]; 10 mg/kg i.p., 15, 30 and 60 mmHg): significant decrease
- Effect on visceromotor response relative to lower dose ([5]; 30 mg/kg i.p.): less effective
- Animals in which the visceromotor response to CRD was eliminated ([5]; 30 mg/kg i.p., n=6): 50 % of the animals
